{"source": "patent US9877980B2", "about": "“Method and composition for treatment or prevention of type 2 diabetes and hyperlipidemia” (Chun-Ching Shih, priority 2016, dated 2018)", "type_in_all_cases": "in vivo", "key": {"[1]": {"test_system": "C57BL/6J mice on high-fat diet (HFD)", "test": "Absolute tissue weight, body weight, weight gain and food intake in HFD mice", "details": "4 weeks", "protocol": "(§1) The following experiment was performed and approved by the guidelines of the Institutional Animal Care and Use Committee of Central Taiwan University of Science and Technology. The 4-week old male C57BL/6J mice (total amount n=63) were purchased from the National Laboratory Animal Breeding and Research Center (Taipei, Taiwan). After acclimatization for one week, all of the mice were divided randomly into the control (CON) group and the high-fat diet (HFD) group. For the following 12 weeks, the CON group (n=9) was kept on a low-fat diet (Diet 12450B, Research Diets, Inc., New Brunswick, N.J., USA), while the HFD group (n=54) was exposed to a high-fat diet (Diet 12451, Research Diets, New Brunswick, N.J., USA). The low-fat diet was composed of protein 20%, carbohydrate 70% and fat 10%, whereas the high-fat diet was composed of protein 20%, carbohydrate 35%, and fat 45% (of total energy, % kcal). After HFD exposure for 8 weeks, the HFD group was further randomly subdivided into 6 groups (n=9 per group) to receive different treatments by oral gavage once daily for four weeks and on HFD. […] The HF+B1, HF+B2, and […] are collectively termed BB-treated HFD groups in the following examples. The CON mice were administered vehicle. After dosing for 4 weeks, the mice were given no food at night and sacrificed after 12 h of fasting on the next day. All of the individual tissues were collected and weighed, and portions were instantly frozen using liquid nitrogen and kept at −80° C. for subsequent target gene analysis. Blood samples (0.8 mL) were collected for analysis of blood parameters.\nBody weight of each mouse was monitored and measured daily at the same time throughout the experimentation. The difference in body weight between two consecutive days is defined as body weight gain. The food pellets for mice were weighed and put into the food container. Unconsumed pellets of high-fat diet were discarded each day and fresh pellets of high-fat diet were provided to ensure food quality throughout the experimentation. The high-fat food pellets were stored at 4° C."}, "[2]": {"test_system": "C57BL/6J mice on high-fat diet (HFD)", "test": "Blood parameters (glucose, insulin, TG, FFA, TC, leptin, adiponectin) in HFD mice", "details": "4 weeks", "protocol": "as §1, with “For the following 12 weeks, the CON group (n=9) was kept on a low-fat diet (Diet 12450B, Research Diets, Inc., New Brunswick, N.J., USA), while the HFD group (n=54) was exposed to a high-fat diet (Diet 12451, Research Diets, New Brunswick, N.J., USA). The low-fat diet was composed of protein 20%, carbohydrate 70% and fat 10%, whereas the high-fat diet was composed of protein 20%, carbohydrate 35%, and fat 45% (of total energy, % kcal).” left out\nA portion of the blood samples obtained from the retro-orbital sinus of fasted mice were immediately used to measure blood glucose levels using Sidekick glucose analyzer (YSI 1500, YSI Incorporated, Yellow Springs, USA) according to the glucose oxidase method. Heparin (30 units/mL, Sigma) was added into other portions of the blood samples. […] Concentrations of plasma triglycerides (TG), total cholesterol (TC), and free fatty acids (FFA) were determined using commercial assay kits according to the manufacturer's instructions (Triglycerides-E test, Cholesterol-E test, and FFA-C test, Wako Pure Chemical, Osaka, Japan). Plasma insulin, leptin, and adiponectin levels were assessed using commercial assay kits according to the manufacturer's instructions (mouse insulin ELISA kit, Mercodia, Uppsala, Sweden; mouse leptin ELISA kit, Morinaga, Yokohama, Japan; Mouse Adiponectin ELISA kit, Crystal Chem International, Downers Grove, Ill., USA)."}, "[3]": {"test_system": "epididymal adipocyte of HFD mice", "test": "Histology of epididymal white adipose tissue (adipocyte hypertrophy)", "details": "4 weeks, three measurements", "protocol": "as §1\n(§2) Small pieces of epididymal white adipose tissue and liver tissue were fixed with formalin (200 g/kg) neutral buffered solution and embedded in paraffin. Sections of 8 μm […] were cut and stained with hematoxylin and eosin. For microscopic examination, a microscope (Leica, DM2500) was used, and the images were taken using a Leica Digital Camera (DFC-425-C).\nAdipocyte hypertrophy, the pathological enlargement of adipocytes, is often found in subjects with type 2 diabetes and hyperlipidemia. To verify the therapeutic effect of the compound of formula I on adipocyte hypertrophy, morphology of the EWAT for the CON group and the BB-treated HFD groups was examined. Micrographs of the EWAT sections for each group were analyzed to determine the mean area of an epididymal adipocyte using the software ImageJ."}, "[4]": {"test_system": "hepatocytes of HFD mice", "test": "Histology of liver tissue (hepatocellular ballooning)", "details": "4 weeks, grade 0 absence, 1 a few cells", "protocol": "as §1, §2\nBased on previous report, the designation of histological hepatocellular ballooning findings include grade 0 for absence of degeneration, grade 1 for degeneration in a few cells, and […] for degeneration in many cells."}, "[5]": {"test_system": "C57BL/6J mice on high-fat diet (HFD)", "test": "Hepatic lipids in HFD mice", "details": "4 weeks", "protocol": "as §1\nFor hepatic lipid extraction, a 0.375 g liver samples were homogenized with 1 mL distill water for 5 minutes. The dried pellet was finally resuspended in 0.5 mL ethanol and analyzed using a triglycerides kit as used for analyzing the serum lipids set forth above."}}, "note": "Marks after values point to notes of the source that are not given here."}
{"smiles": "CC(C)OC(=O)C(C)(C)Oc1ccc(C(=O)c2ccc(Cl)cc2)cc1", "note": "[Feno, fenofibrate, reference compound]", "values": [{"measurement": "Absolute tissue weight BAT", "setting": "[1]; 250 mg/kg/day oral gavage", "value": "0.139 ± 0.011", "unit": "g"}, {"measurement": "Absolute tissue weight EWAT", "setting": "[1]; 250 mg/kg/day oral gavage", "value": "0.763 ± 0.116^f g"}, {"measurement": "Absolute tissue weight Liver", "setting": "[1]; 250 mg/kg/day oral gavage", "value": "1.669 ± 0.033^f g"}, {"measurement": "Absolute tissue weight MWAT", "setting": "[1]; 250 mg/kg/day oral gavage", "value": "0.264 ± 0.056", "unit": "g"}, {"measurement": "Absolute tissue weight RWAT", "setting": "[1]; 250 mg/kg/day oral gavage", "value": "0.173 ± 0.032^f g"}, {"measurement": "Absolute tissue weight Skeletal muscle", "setting": "[1]; 250 mg/kg/day oral gavage", "value": "0.990 ± 0.078", "unit": "g"}, {"measurement": "Absolute tissue weight Visceral fat", "setting": "[1]; 250 mg/kg/day oral gavage", "value": "0.936 ± 0.147^f g"}, {"measurement": "Body weight", "setting": "[1]; 250 mg/kg/day oral gavage", "value": "26.92 ± 0.96", "unit": "g"}, {"measurement": "Weight gain", "setting": "[1]; 250 mg/kg/day oral gavage", "value": "−0.58 ± 0.48^d g"}, {"measurement": "Blood parameters Adiponectin", "setting": "[2]; 250 mg/kg/day oral gavage", "value": "3.101 ± 0.028^f μg/mL"}, {"measurement": "Blood parameters FFA", "setting": "[2]; 250 mg/kg/day oral gavage", "value": "0.91 ± 0.08^f mEq/L"}, {"measurement": "Blood parameters Leptin", "setting": "[2]; 250 mg/kg/day oral gavage", "value": "1.206 ± 0.015^f ng/mL"}, {"measurement": "Blood parameters TC", "setting": "[2]; 250 mg/kg/day oral gavage", "value": "104.5 ± 5.5^f mg/dL"}, {"measurement": "mean area of an epididymal adipocyte", "setting": "[3]; 250 mg/kg/day oral gavage", "value": "6982.3±309.7", "unit": "μm^2"}, {"measurement": "hepatocellular ballooning mean score", "setting": "[4]; 250 mg/kg/day oral gavage", "value": "0.6±0.1"}, {"measurement": "Liver lipids Total lipid", "setting": "[5]; 250 mg/kg/day oral gavage", "value": "62.4 ± 3.9^f mg/g"}, {"measurement": "Liver lipids Triacylglycerol", "setting": "[5]; 250 mg/kg/day oral gavage", "value": "43.8 ± 5.6^f μmol/g"}]}
{"smiles": "CN(CCOc1ccc(CC2SC(=O)NC2=O)cc1)c1ccccn1", "note": "(centres unmarked) [Rosi, rosiglitazone, reference compound]", "values": [{"measurement": "Absolute tissue weight BAT", "setting": "[1]; 10 mg/kg/day oral gavage", "value": "0.206 ± 0.012", "unit": "g"}, {"measurement": "Absolute tissue weight EWAT", "setting": "[1]; 10 mg/kg/day oral gavage", "value": "0.919 ± 0.097^d g"}, {"measurement": "Absolute tissue weight Liver", "setting": "[1]; 10 mg/kg/day oral gavage", "value": "0.886 ± 0.031", "unit": "g"}, {"measurement": "Absolute tissue weight MWAT", "setting": "[1]; 10 mg/kg/day oral gavage", "value": "0.302 ± 0.029", "unit": "g"}, {"measurement": "Absolute tissue weight RWAT", "setting": "[1]; 10 mg/kg/day oral gavage", "value": "0.224 ± 0.032^f g"}, {"measurement": "Absolute tissue weight Skeletal muscle", "setting": "[1]; 10 mg/kg/day oral gavage", "value": "0.960 ± 0.078", "unit": "g"}, {"measurement": "Absolute tissue weight Visceral fat", "setting": "[1]; 10 mg/kg/day oral gavage", "value": "1.143 ± 0.124^e g"}, {"measurement": "Body weight", "setting": "[1]; 10 mg/kg/day oral gavage", "value": "28.61 ± 1.51", "unit": "g"}, {"measurement": "Food intake", "setting": "[1]; 10 mg/kg/day oral gavage", "value": "2.11 ± 0.06", "unit": "g/day/mouse"}, {"measurement": "Weight gain", "setting": "[1]; 10 mg/kg/day oral gavage", "value": "0.38 ± 0.32", "unit": "g"}, {"measurement": "Blood parameters Adiponectin", "setting": "[2]; 10 mg/kg/day oral gavage", "value": "3.058 ± 0.040^f μg/mL"}, {"measurement": "Blood parameters FFA", "setting": "[2]; 10 mg/kg/day oral gavage", "value": "1.08 ± 0.11^e mEq/L"}, {"measurement": "Blood parameters Leptin", "setting": "[2]; 10 mg/kg/day oral gavage", "value": "1.661 ± 0.013^f ng/mL"}, {"measurement": "Blood parameters TC", "setting": "[2]; 10 mg/kg/day oral gavage", "value": "111.5 ± 2.3^f mg/dL"}, {"measurement": "mean area of an epididymal adipocyte", "setting": "[3]; 10 mg/kg/day oral gavage", "value": "5886.4 ± 58.7", "unit": "μm^2"}, {"measurement": "hepatocellular ballooning mean score", "setting": "[4]; 10 mg/kg/day oral gavage", "value": "0.8±0.2"}, {"measurement": "Liver lipids Total lipid", "setting": "[5]; 10 mg/kg/day oral gavage", "value": "70.1 ± 8.2^d mg/g"}, {"measurement": "Liver lipids Triacylglycerol", "setting": "[5]; 10 mg/kg/day oral gavage", "value": "52.1 ± 7.7^d μmol/g"}]}
